According to US20100119595A1, “Monounsaturated fatty acids and perhydrocyclopentanophenanthrene nucleus combination molecules, and their precursors, and the use of all of these as weight-loss agents” (priority 2001, published 2010):

Legend:
[1] = Dog weight-loss study, 2 hydroxyestrone oleate vs oleoyl-estrone (Example 10); type: in vivo; conditions: oral 21 days, 5, 3.33 or 2.5 micromoles/kg vs OE 10 micromoles/kg
Excerpt: Dogs are selected and initial measurements taken. The initial measurements include weight and electrical impedance for each dog as measured by a standard impedance measuring device with electrodes placed between the front and rear paws. The dogs are placed individually in appropriate cages and allowed an ad libitum diet of standard dog chow and water for a 10-day period. Daily measurements include the following: • 1. Weight • 2. Weight of food consumed • 3. Water consumed, both volume and weight
Every other day, the dogs' electrical impedance is measured as an indicator of fat tissue content and loss. The dogs remain confined with out of cage activity or exercise for the duration of the experiment. This initial 10-day period establishes a pattern and average of weight gain, impedance change, and food and water consumption for each dog. […] This assures the dogs will readily accept the bread ball as a drug delivery device. […]
An appropriate volume of either OE or 2HOE is placed into the center of a thick piece of dense sweet bread (non-porous), carefully rolled into a small ball so none of the compound leaks out, and sprinkled on the outer surface with sugar or syrup as determined above. […] Electrical impedance of each dog is measured every other day.

[2] = Human study of estrone eicosenoate as anti-obesity drug (Example 3); type: in vivo; conditions: humans, oral capsule every morning, 0.75 or 0.375 micromoles/kg
Experimental: • 1) The required number of subjects are properly screened to fulfill the necessary qualifications, • 2) appropriate laboratory evaluation are performed, • 3) various aspects of positive drug response in a manner acceptable for drug approval are recorded, • 4) adverse drug effects are documented, and • 5) patients are adequately followed-up.
In this random, double-blind, placebo controlled study, subjects are selected to one of three groups and take a capsule orally every morning containing one of the following: a) sunflower oil (placebo), b) estrone eicosenoate dissolved in sunflower oil at a dose of 0.75 micromoles/kg, or c) estrone eicosenoate dissolved in sunflower oil at a dose of to 0.375 micromoles/kg.
Subjects report weekly for measurements and assessment of any side effects. […]
Different tests are performed at least five different times during each study, namely at the screening of potential participants, at the beginning of the study, weekly during the trials, at the end of the first 4 week period and at the end of the second 4 week treatment period. • 1) SCREENING: Subjects are screened to exclude hypothyroidism, pregnancy, and heart disease. […] Subjects selected to participate in the studies have the following initial measurements: WEIGHT, WAIST to HIP RATIO, HEIGHT, BMI (calculated), BODY FAT % & TOTAL BODY FAT (via bioelectrical impedance method). […]

SMILES | weight loss compared with dogs receiving oleoyl-estrone [1] | appetite [2] | weight loss, loss of body fat, and/or decrease of body fat% [2]
CCCCCCCC/C=C\CCCCCCCC(=O)Oc1cc2c(cc1O)[C@H]1CC[C@]3(C)C(=O)CC[C@H]3[C@@H]1CC2 [2HOE, 2 hydroxyestrone oleate] | greater weight loss |  | 
CCCCCCCC/C=C\CCCCCCCCCC(=O)Oc1ccc2c(c1)CC[C@@H]1[C@@H]2CC[C@]2(C)C(=O)CC[C@@H]12 [EE, estrone eicosenoate] |  | reduces appetite | produces weight loss
